Measurements from patent publication US20110136801A1, “Novel Compounds” (Dainippon Sumitomo Pharma Co. Ltd., priority 2009, published 2011).

Biological target: T1, human TLR7 (Homo sapiens, UniProt Q9NYK1)
T1 construct: expressed in transfected cells; host or cells: HEK293 cell line stably expressing the pNiFty2-SEAP reporter plasmid; TLR7 in pUNO vector, blasticidin selection
T1 sequence (Q9NYK1 27-1049): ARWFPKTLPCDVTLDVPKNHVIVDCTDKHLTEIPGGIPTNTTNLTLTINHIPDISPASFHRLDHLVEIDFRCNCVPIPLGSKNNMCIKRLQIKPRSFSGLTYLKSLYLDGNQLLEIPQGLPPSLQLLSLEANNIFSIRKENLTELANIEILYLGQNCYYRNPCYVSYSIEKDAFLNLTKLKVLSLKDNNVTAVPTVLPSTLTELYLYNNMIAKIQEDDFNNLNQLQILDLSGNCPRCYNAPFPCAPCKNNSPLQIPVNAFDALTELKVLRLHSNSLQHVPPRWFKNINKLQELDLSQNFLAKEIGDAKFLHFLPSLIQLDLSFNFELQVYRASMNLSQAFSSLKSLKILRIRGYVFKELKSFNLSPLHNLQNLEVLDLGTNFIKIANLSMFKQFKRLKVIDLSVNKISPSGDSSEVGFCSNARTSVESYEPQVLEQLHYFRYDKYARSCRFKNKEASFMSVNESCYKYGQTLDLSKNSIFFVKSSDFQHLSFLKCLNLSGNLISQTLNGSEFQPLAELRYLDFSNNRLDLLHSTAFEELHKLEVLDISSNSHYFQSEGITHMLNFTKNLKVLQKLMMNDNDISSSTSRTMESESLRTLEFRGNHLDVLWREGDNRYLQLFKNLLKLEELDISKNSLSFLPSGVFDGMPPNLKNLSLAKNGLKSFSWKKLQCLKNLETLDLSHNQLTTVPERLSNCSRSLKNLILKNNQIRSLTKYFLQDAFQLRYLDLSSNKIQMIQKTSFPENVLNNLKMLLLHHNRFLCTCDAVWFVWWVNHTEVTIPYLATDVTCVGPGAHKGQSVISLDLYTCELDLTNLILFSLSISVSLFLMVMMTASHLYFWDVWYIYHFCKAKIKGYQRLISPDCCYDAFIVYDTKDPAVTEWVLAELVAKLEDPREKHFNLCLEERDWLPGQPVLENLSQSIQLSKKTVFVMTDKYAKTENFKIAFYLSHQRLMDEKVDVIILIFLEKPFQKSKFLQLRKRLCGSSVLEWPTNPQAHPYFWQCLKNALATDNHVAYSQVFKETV
Assay: Human TLR7 Assay (SEAP reporter in HEK293 cells);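 note: Read-out is secreted alkaline phosphatase made under an NFkB/ELAM-1 composite promoter, reporting TLR7-triggered NFkB activation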
Type: cell-based
Settings: HEK293 cell line expressing human TLR7 and pNiFty2-SEAP reporter, overnight incubation at 37° C., 0.1% DMSO; read-out: hTLR7 EC50
Description: The most common variant sequence of human TLR7 (represented by the EMBL sequence AF240467) was cloned into the mammalian cell expression vector pUNO and transfected into a HEK293 cell line already stably expressing the pNiFty2-SEAP reporter plasmid; integration of the reporter gene was maintained by selection with the antibiotic zeocin. Transfectants with stable TLR7 expression were selected using the antibiotic blasticidin. In this reporter cell-line, expression of secreted alkaline phosphatase (SEAP) is controlled by an NFkB/ELAM-1 composite promoter comprising five NFkB sites combined with the proximal ELAM-1 promoter. TLR signaling leads to the translocation of NFkB and activation of the promoter results in expression of the SEAP gene. TLR7-specific activation was assessed by determining the level of SEAP produced following overnight incubation of the cells at 37° C. with the standard compound in the presence of 0.1% (v/v) dimethylsulfoxide (DMSO). Concentration dependent induction of SEAP production by compounds was expressed as the concentration of compound which produced half of the maximal level of SEAP induction for that compound (EC50).

SMILES | EC50
CCOC(=O)COc1cccc(CN(CCCCn2c(CCOC)nc3c(N)nc4ccccc4c32)C(=O)NCCN(C)C)c1 [Example 127, Ethyl 2-{3-[(1-{4-[4-amino-2-(2-methoxyethyl)-1H-imidazo[4,5-c]quinolin-1-yl]butyl}-3-{2-(dimethylamino)ethyl}ureido)methyl]phenoxy}acetate] | 42.9 nM
CCOC(=O)COc1cccc(CN(CCCCn2c(CCOC)nc3c(N)nc4ccccc4c32)C(=O)NCCCN(C)C)c1 [Example 129, Ethyl 2-{3-[(1-{4-[4-amino-2-(2-methoxyethyl)-1H-imidazo[4,5-c]quinolin-1-yl]butyl}-3-{3-(dimethylamino)propyl}ureido)methyl]phenoxy}acetate] | 204 nM
COCCc1nc2c(N)nc3ccccc3c2n1CCCCN(CCN(C)C)Cc1cccc(OCC(=O)OC(C)C)c1 [Example 132, Isopropyl 2-{3-[({4-[4-amino-2-(2-methoxyethyl)-1H-imidazo[4,5-c]quinolin-1-yl]butyl}{2-[dimethylamino]ethyl}amino)methyl]phenoxy}acetate] | 56.4 nM
COCCc1nc2c(N)nc3ccccc3c2n1CCCCN(CCCN1CCOCC1)Cc1cccc(OCC(=O)OC(C)C)c1 [Example 133, Isopropyl 2-{3-[({4-[4-amino-2-(2-methoxyethyl)-1H-imidazo[4,5-c]quinolin-1-yl]butyl}{3-morpholinopropyl}amino)methyl]phenoxy}acetate] | 114 nM
CCOC(=O)C(C)(C)Oc1cccc(CN(CCCCn2c(CCOC)nc3c(N)nc4ccccc4c32)CCN(C)C)c1 [Example 134, Ethyl 2-{3-[({4-[4-amino-2-(2-methoxyethyl)-1H-imidazo[4,5-c]quinolin-1-yl]butyl}{2-(dimethylamino)ethyl}amino)methyl]phenoxy}-2-methylpropanoate] | 20.9 nM
COCCc1nc2c(N)nc3ccccc3c2n1CCCCN(CCN(C)C)Cc1cccc(OC(C)(C)C(=O)OC)c1 [Example 135, Methyl 2-{3-[({4-[4-amino-2-(2-methoxyethyl)-1H-imidazo[4,5-c]quinolin-1-yl]butyl}{2-(dimethylamino)ethyl}amino)methyl]phenoxy}-2-methylpropanoate] | 16.6 nM
CCOC(=O)C(C)(C)Oc1cccc(CN(CCCCn2c(CCOC)nc3c(N)nc4ccccc4c32)CCCN2CCOCC2)c1 [Example 136, Ethyl 2-{3-[({4-[4-amino-2-(2-methoxyethyl)-1H-imidazo[4,5-c]quinolin-1-yl]butyl}{3-morpholinopropyl}amino)methyl]phenoxy}-2-methylpropanoate] | 111 nM
COCCc1nc2c(N)nc3ccccc3c2n1CCCCN(CCCN1CCOCC1)Cc1cccc(OC(C)(C)C(=O)OC)c1 [Example 137, Methyl 2-{3-[({4-[4-amino-2-(2-methoxyethyl)-1H-imidazo[4,5-c]quinolin-1-yl]butyl}{3-morpholinopropyl}amino)methyl]phenoxy}-2-methylpropanoate] | 87.7 nM
COCCc1nc2c(N)nc3ccccc3c2n1CCCCNC(=O)N(CCN1CCCCC1)Cc1ccc(F)c(OCC(=O)OC(C)C)c1 [Example 142, Isopropyl 2-{5-[(3-{4-[4-amino-2-(2-methoxyethyl)-1H-imidazo[4,5-c]quinolin-1-yl]butyl}-1-{2-(piperidin-1-yl)ethyl}ureido)methyl]-2-fluorophenoxy}acetate] | 57.5 nM
CCN(CC)CC(=O)N(CCCn1c(CCOC)nc2c(N)nc3ccccc3c21)Cc1cccc(OCC(=O)OC(C)C)c1C [Example 147, Isopropyl 2-{3-[(N-{3-[4-amino-2-(2-methoxyethyl)-1H-imidazo[4,5-c]quinolin-1-yl]propyl}-2-{diethylamino}acetamido)methyl]-2-methylphenoxy}acetate] | 183 nM
CCOC(=O)C(C)(C)Oc1cccc(CN(CCCn2c(CCOC)nc3c(N)nc4ccccc4c32)C(=O)CN(C)C)c1 [Example 148, Ethyl 2-{3-[(N-{3-[4-amino-2-(2-methoxyethyl)-1H-imidazo[4,5-c]quinolin-1-yl]propyl}-2-{dimethylamino}acetamido)methyl]phenoxy}-2-methylpropanoate] | 115 nM

The remaining lines, values ahead:

EC50 | SMILES
11.2 nM | CCOC(=O)COc1ccc(CN(CCCCn2c(CCOC)nc3c(N)nc4ccccc4c32)C(=O)NCCN2CCCCC2)cc1 [Example 125, Ethyl 2-{4-[(1-{4-[4-amino-2-(2-methoxyethyl)-1H-imidazo[4,5-c]quinolin-1-yl]butyl}-3-{2-(piperidin-1-yl)ethyl}ureido)methyl]phenoxy}acetate]
47 nM | CCOC(=O)COc1cccc(CN(CCCCn2c(CCOC)nc3c(N)nc4ccccc4c32)C(=O)NCCN2CCCCC2)c1 [Example 126, Ethyl 2-{3-[(1-{4-[4-amino-2-(2-methoxyethyl)-1H-imidazo[4,5-c]quinolin-1-yl]butyl}-3-{2-(piperidin-1-yl)ethyl}ureido)methyl]phenoxy}acetate]
130 nM | CCOC(=O)COc1cccc(CN(CCCCn2c(CCOC)nc3c(N)nc4ccccc4c32)C(=O)NCCCN2CCCCC2)c1 [Example 128, Ethyl 2-{3-[(1-{4-[4-amino-2-(2-methoxyethyl)-1H-imidazo[4,5-c]quinolin-1-yl]butyl}-3-{3-(piperidin-1-yl)propyl}ureido)methyl]phenoxy}acetate]
24.4 nM | CCOC(=O)COc1cccc(CN(CCN2CCCCC2)C(=O)NCCCCn2c(CCOC)nc3c(N)nc4ccccc4c32)c1 [Example 130, Ethyl 2-{3-[(3-{4-[4-amino-2-(2-methoxyethyl)-1H-imidazo[4,5-c]quinolin-1-yl]butyl}-1-{2-(piperidin-1-yl)ethyl}ureido)methyl]phenoxy}acetate]
37.5 nM | CCOC(=O)COc1ccc(CN(CCN2CCCCC2)C(=O)NCCCCn2c(CCOC)nc3c(N)nc4ccccc4c32)cc1 [Example 131, Ethyl 2-{4-[(3-{4-[4-amino-2-(2-methoxyethyl)-1H-imidazo[4,5-c]quinolin-1-yl]butyl}-1-{2-(piperidin-1-yl)ethyl}ureido)methyl]phenoxy}acetate]
57 nM | COCCc1nc2c(N)nc3ccccc3c2n1CCCCN(Cc1ccc(F)c(OCC(=O)OC(C)C)c1)C(=O)NCCN1CCCCC1 [Example 139, Isopropyl 2-{5-[(1-{4-[4-amino-2-(2-methoxyethyl)-1H-imidazo[4,5-c]quinolin-1-yl]butyl}-3-{2-(piperidin-1-yl)ethyl}ureido)methyl]-2-fluorophenoxy}acetate]
79.1 nM | CCOC(=O)COc1cc(CN(CCCCn2c(CCOC)nc3c(N)nc4ccccc4c32)C(=O)NCCN2CCCCC2)ccc1F [Example 140, Ethyl 2-{5-[(1-{4-[4-amino-2-(2-methoxyethyl)-1H-imidazo[4,5-c]quinolin-1-yl]butyl}-3-{2-(piperidin-1-yl)ethyl}ureido)methyl]-2-fluorophenoxy}acetate]
49.4 nM | CCOC(=O)COc1cc(CN(CCN2CCCCC2)C(=O)NCCCCn2c(CCOC)nc3c(N)nc4ccccc4c32)ccc1F [Example 143, Ethyl 2-{5-[(3-{4-[4-amino-2-(2-methoxyethyl)-1H-imidazo[4,5-c]quinolin-1-yl]butyl}-1-{2-(piperidin-1-yl)ethyl}ureido)methyl]-2-fluorophenoxy}acetate]
79.2 nM | COCCc1nc2c(N)nc3ccccc3c2n1CCCCNC(=O)N(CCN1CCCCC1)Cc1ccc(F)c(OCC(=O)OC)c1 [Example 144, Methyl 2-{5-[(3-{4-[4-amino-2-(2-methoxyethyl)-1H-imidazo[4,5-c]quinolin-1-yl]butyl}-1-{2-(piperidin-1-yl)ethyl}ureido)methyl]-2-fluorophenoxy}acetate]
